Results on 36 compounds are retold here after patent US12240828B2, “Heteroaromatic compounds as vanin inhibitors” (Boehringer Ingelheim International GmbH, priority 2018, dated 2025).

One experiment has as its target T1, FLAG-tagged Vanin-1 (AA 22-493, T26I) (Homo sapiens, UniProt O95497, T26I).
T1 construct: FLAG-tagged Vanin-1 (AA 22-493, T26I, produced internally); FLAG; made in house
T1 sequence (O95497 22-493 T26I): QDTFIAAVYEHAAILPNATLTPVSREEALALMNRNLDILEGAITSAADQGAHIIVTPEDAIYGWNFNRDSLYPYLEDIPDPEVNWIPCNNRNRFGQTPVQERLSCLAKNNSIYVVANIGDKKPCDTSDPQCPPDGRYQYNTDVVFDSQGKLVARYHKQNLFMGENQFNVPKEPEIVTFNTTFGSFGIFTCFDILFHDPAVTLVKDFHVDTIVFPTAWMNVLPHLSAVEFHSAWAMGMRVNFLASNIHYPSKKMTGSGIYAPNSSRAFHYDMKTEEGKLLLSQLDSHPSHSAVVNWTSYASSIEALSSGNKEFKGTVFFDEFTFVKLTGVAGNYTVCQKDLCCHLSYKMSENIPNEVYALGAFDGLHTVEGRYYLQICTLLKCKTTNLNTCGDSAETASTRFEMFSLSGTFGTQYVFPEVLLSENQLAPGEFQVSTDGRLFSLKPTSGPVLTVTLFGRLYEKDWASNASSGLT
The experiment in a line: Vanin-1 enzymatic assay. Format: biochemical. Particulars: 0.1 nM Vanin-1, 3 μM D-pantethine, pantothenic acid formation by RapidFire MS; geometric mean if multiple measurements; read-out: VNN-1 IC50. How it is done: The test compounds are dissolved in 100% DMSO at a concentration of 10 mM and in a first step diluted in DMSO to a concentration of 5 mM, followed by serial dilution steps in 100% DMSO. Dilution factor and number of dilution steps may vary according to needs. Typically 8 different concentrations by 1:5 dilutions are prepared, a further intermediate dilutions of the substances is carried out with assay buffer resulting in 1% final DMSO concentration in the assay.
0.1 nM of FLAG-tagged Vanin-1 (AA 22-493, T26I, produced internally) and test compounds are incubated at room temperature for 20 minutes in assay buffer (1 mM DTT, 0.0025% Brij-35, 50 mM HEPES, pH7.5). D-Pantethine (Sigma, Cat #P2125-5G) in assay buffer is added (final concentration 3 μM) and incubated for additional 30 minutes at room temperature. Total assay volume typically is 40 μl but might be adjusted according to needs. Reaction is stopped by adding equal volume of stop solution as the reaction mixture to reach 100 nM HD-pantothenic acid (as an internal standard) and 1% TFA. Assay plates are centrifuged for 2 minutes and the formation of pantothenic acid is detected by RapidFire Mass Spectrometry (mobile phase A: 0.1% formic acid and 0.01% trifluoroacetic acid in water; mobile phase B: 47.5% acetonitrile, 47.5% methanol, 0.1% formic acid and 0.01% trifluoroacetic acid in water) using a C18, 12 μL cartridge (Agilent Cat #G9205A).
The values given in Table I result from measurements of one or more samples. In case of multiple measurements the geometric mean values are given.
The term IC50 denotes the concentration that gives 50% inhibition. For `Cc1ccncc1CNc1ccc(C(=O)N2CC[C@H](N(C)C(=O)C3(C)CCC3)C2)cn1` [Example 1.9], the IC50 was found to be 120 pM.
Take `CNS(=O)(=O)c1cccc([C@H](C)Nc2ccc(C(=O)N3CC[C@H](N(C)C(C)=O)C3)cn2)c1` [Example 1.23]: the IC50 is 260 pM.
The same measure, in the same setting: the value for `CC(=O)N(C)[C@H]1CCN(C(=O)c2ccc(NCc3cccc(-c4nc(CC(F)(F)F)no4)c3)nc2)C1` [Example 1.48] was 980 pM; that for `CC(=O)N(C)[C@H]1CCN(C(=O)c2ccc(NC3(c4cncc(C(F)(F)F)c4)CC3)nc2)C1` [Example 1.17] was 210 pM.
The same measure, in the same setting: in the case of `CN(C(=O)C1(C)CCC1)[C@H]1CCN(C(=O)c2ccc(NCc3cccnc3Cl)nc2)C1` [Example 1.7] it was 120 pM; in that of `CN(C(=O)C1CC1)[C@H]1CCN(C(=O)c2ccc(NC(C)(C)c3ccccc3)nc2)C1` [Example 2.1, N-Methyl-N-[(3S)-1-{6-[(2-phenylpropan-2-yl)amino]pyridine-3-carbonyl}pyrrolidin-3-yl]cyclopropanecarboxamide], 60 pM.
On the same count and under the same terms, the value for `C[C@H](Nc1ccc(C(=O)N2CCC(C)(C#N)C2)cn1)c1ccccc1` (some centres unmarked) [Example 3.2] was 190 pM; that for `CC(=O)N(C)[C@H]1CCN(C(=O)c2ccc(NC(C)c3ccccc3)nc2)C1` (some centres unmarked) [Example 9.7] was 720 pM.
With `CC(=O)N(C)[C@H]1CCN(C(=O)c2ccc(NC3CCCc4cn[nH]c43)nc2)C1` (some centres unmarked) [Example 1.81], the half-inhibitory concentration (IC50) stood at 6990 pM.
The same measure, in the same setting: the value for `CC(=O)N(C)[C@H]1CCN(C(=O)c2ccc(NCc3ccncc3)nc2)C1` [Example 1.87] was 8450 pM.
In the case of `CC(=O)N(C)[C@H]1CCN(C(=O)c2ccc(N[C@@H](C)c3ccc(C#N)nc3)nc2)C1` [Example 11.1, N-[(3S)-1-(6-{[(1S)-1-(6-cyanopyridin-3-yl)ethyl]amino}pyridine-3-carbonyl)pyrrolidin-3-yl]-N-methylacetamide], the IC50 is 740 pM.
Turning to `COC(=O)c1cccc(C(C)Nc2ccc(C(=O)N3CC[C@H](N(C)C(C)=O)C3)cn2)c1` (some centres unmarked) [Example 1.29], the IC50 worked out at 340 pM.
As for `CN(C(=O)C1(C)CCC1)[C@H]1CCN(C(=O)c2ccc(NCc3ccc(Cl)nc3)nc2)C1` [Example 1.28], the IC50 was 320 pM.
On the same count and under the same terms, the value for `CC(=O)N(C)[C@H]1CCN(C(=O)c2ccc(NCc3cncc(Br)c3)nc2)C1` [Example 1.41] was 770 pM.
Still for that read-out and setting: the value for `CC(=O)N(C)[C@H]1CCN(C(=O)c2ccc(NC3(c4ccc(Cl)cc4)CCC3)nc2)C1` [Example 9.2] was 150 pM; that for `CN(C(=O)C1CC(F)(F)C1)[C@H]1CCN(C(=O)c2ccc(NC(C)(C)c3ccccc3)nc2)C1` [Example 2.3] was 90 pM.
Still for that read-out and setting: in the case of `CC(=O)N(C)[C@H]1CCN(C(=O)c2ccc(NC(C)c3cccnc3)nc2)C1` (single isomer, unassigned) [Example 6.1.B] it was 1430 pM.
`CC(=O)N(C)[C@H]1CCN(C(=O)c2ccc(NCc3ccc(N)nc3)nc2)C1` [Example 1.34]: the IC50 came out at 470 pM.
Still for that read-out and setting: in the case of `CC[C@H](Nc1ccc(C(=O)N2CC[C@H](N(C)C(C)=O)C2)cn1)c1ccc(C(F)F)cc1` [Example 1.62] it was 2360 pM; in that of `C[C@H](Nc1ccc(C(=O)N2CC[C@H](N(C)C(=O)C3(C)CCC3)C2)cn1)c1cnccn1` [Example 1.76], 4330 pM.
As for `CN(C(=O)C1(C)CCC1)[C@H]1CCN(C(=O)c2ccc(NCc3cnccc3C(F)(F)F)nc2)C1` [Example 1.39], the IC50 came out at 660 pM.
Same read-out and setting: the value for `CC(=O)Nc1cccc(C(C)Nc2ccc(C(=O)N3CC[C@H](N(C)C(C)=O)C3)cn2)c1` (some centres unmarked) [Example 1.36] was 540 pM; that for `CC(=O)N(C)[C@H]1CCN(C(=O)c2ccc(NCc3ccccn3)nc2)C1` [Example 1.56] was 1650 pM.
Regarding `O=C(N[C@H]1CCN(C(=O)c2ccc(NC3(c4cncnc4)CC3)nc2)C1)C1CC1` [Example 8.13], the half-maximal inhibitory concentration (IC50) amounted to 4280 pM.
Still for that read-out and setting: the value for `CC(=O)N(C)[C@H]1CCN(C(=O)c2ccc(NC(C)c3cccc(C(N)=O)c3)nc2)C1` (stereo partly drawn) [Example 10.1, 3-[1-({5-[(3S)-3-(N-Methylacetamido)pyrrolidine-1-carbonyl]pyridin-2-yl}amino)ethyl]benzamide] was 350 pM.
In the case of `CN(C(=O)C1CC1)[C@H]1CCN(C(=O)c2ccc(NCc3ccc(Cl)nc3)nc2)C1` [Example 1.13], the IC50 came out at 170 pM.
Still for that read-out and setting: in the case of `CC(=O)N(C)[C@H]1CCN(C(=O)c2ccc(NCc3cc(CC(C)C)n[nH]3)nc2)C1` [Example 1.88] it was 8830 pM; in that of `CC(=O)N(C)[C@H]1CCN(C(=O)c2ccc(NCc3cccnn3)nc2)C1` [Example 1.49], 1040 pM.
For the compound `CC(=O)N(C)[C@H]1CCN(C(=O)c2ccc(NCc3ccnn3C)nc2)C1` [Example 1.90], the IC50 turned out to be 9370 pM.
Still for that read-out and setting: the value for `CC(=O)N(C)[C@H]1CCN(C(=O)c2ccc(NC3CCc4[nH]ncc43)nc2)C1` (some centres unmarked) [Example 1.35] was 530 pM.
On the same count and under the same terms, the value for `CC(=O)N(C)[C@H]1CCN(C(=O)c2ccc(NC3(c4ccccc4)CCC3)nc2)C1` [Example 4.6] was 210 pM.
Same read-out and setting: the value for `CC(=O)N(C)[C@H]1CCN(C(=O)c2ccc(NC(C)c3nccs3)nc2)C1` (single isomer, unassigned) [Example 5.1.B] was 940 pM; that for `CN(C)c1ccc(CNc2ccc(C(=O)N3CC[C@H](N(C)C(=O)C4(C)CCC4)C3)cn2)cn1` [Example 1.46] was 960 pM; that for `CN(C(=O)C1(C)CCC1)[C@H]1CCN(C(=O)c2ccc(NC(C)(C)c3cccnc3)nc2)C1` [Example 8.1, N,1-Dimethyl-N-[(3S)-1-(6-{[2-(pyridin-3-yl)propan-2-yl]amino}pyridine-3-carbonyl)pyrrolidin-3-yl]cyclobutane-1-carboxamide] was 110 pM.
For `CC(=O)N(C)[C@H]1CCN(C(=O)c2ccc(N[C@@H](C)c3cccc(S(=O)(=O)N(C)C)c3)nc2)C1` [Example 1.45], the half-maximal inhibitory concentration (IC50) was 940 pM.
Still for that read-out and setting: in the case of `CNC(=O)c1cccc([C@H](C)Nc2ccc(C(=O)N3CC[C@H](N(C)C(C)=O)C3)cn2)c1` [Example 1.25] it was 270 pM.

A further experiment concerns Pantetheinase (vanin). The experiment in a line: Human Whole Blood assay. It counts as cell-based. The settings on record: pantethine substrate, pantothenic acid formation by RapidFire MS, read-out: HWB IC50. How it is done: Human Whole Blood assay: Pantetheinase (vanin) converts panteheine into pantothenic acid and cysteamine. Accordingly, in the described protocol vanin activity is quantified by formation of pantothenic acid after pantetheine supplementation via pantethine. The assay is applicable to identify vanin inhibitors. Compound stocks are dissolved in DMSO at 10 mM. Further dilutions are performed in RPMI 1640 medium (Gibco, #A-10491-01) and final concentrations in the assay are 0.032 nM-500 nM.
Human blood is drawn into a blood bag (1% heparin, 50 I.E./mL). Blood is aliquoted into cavities of 96-deep-well plates at 290 μL and mixed with 10 μL compound solution or vehicle (30 sec at 1400 rpm on a shaker). Equilibration follows at room temperature, 250 rpm and for 30 min. The assay is starts by adding 10 μL of substrate solution (20 μM pantethine in 1 mM DTT, 0.0025% Brij-35, 50 mM HEPES, pH7.5) to each well, except for some blank wells which receive […] substrate buffer (1 mM DTT, 0.0025% Brij-35, 50 mM HEPES, pH7.5) only. Samples are thoroughly shaken (30 sec, 1400 rpm) and reaction is allowed to take place at room temperature, 250 rpm and for 5 min. The reaction is stopped by addition of a vanin tool inhibitor in excess (BI-1 total conc. 10 μM). Centrifugation of the plate follows at 4° C., 665 G for 10 min. Then the blood plasma samples (100 μL) are transferred into another 96-deep-well plate and proteins are precipitated (5 min on ice) by adding 100 μL of ice cold precipitation solution (1 μM labelled pantothenic acid (di-β-alanine-13C6,15N2 calcium salt, Sigma, #705837) in acetonitrile). Afterwards the plate is centrifuged (4° C., 3220 G, 10 min) and supernatants (50 μL) are collected into another 96-deep-well plate and mixed (10 sec, 1400 rpm) with 150 μL ice cold formic acid (0.1%, Carl Roth GmbH+Co.KG, #CP03.1). The formation of pantothenic acid is detected by RapidFire Mass Spectrometry. A TripleQuad 6500+ (ABSciex, Germany) is equipped with an LC-1290 system, a RapidFire autosampler (Agilent, Germany) and a C18 cartridge Type C 12 μL (Agilent Cat #G9526-80000). Mobile phase A is consisting of 0.09% formic acid and 0.01% trifluoroacetic acid in water and mobile phase B of 0.09% formic acid and 0.01% trifluoroacetic acid in acetonitrile/methanol/water=47.5/47.5/5.
`Cc1ccncc1CNc1ccc(C(=O)N2CC[C@H](N(C)C(=O)C3(C)CCC3)C2)cn1` [Example 1.9]: the IC50 came to 1900 pM.
As to `CNS(=O)(=O)c1cccc([C@H](C)Nc2ccc(C(=O)N3CC[C@H](N(C)C(C)=O)C3)cn2)c1` [Example 1.23], the IC50 worked out at 5210 pM.
Consider `CC(=O)N(C)[C@H]1CCN(C(=O)c2ccc(NC3(c4cncc(C(F)(F)F)c4)CC3)nc2)C1` [Example 1.17], for which the IC50 was 5590 pM.
Still for that read-out and setting: the value for `CN(C(=O)C1CC1)[C@H]1CCN(C(=O)c2ccc(NC(C)(C)c3ccccc3)nc2)C1` [Example 2.1, N-Methyl-N-[(3S)-1-{6-[(2-phenylpropan-2-yl)amino]pyridine-3-carbonyl}pyrrolidin-3-yl]cyclopropanecarboxamide] was 3570 pM; that for `C[C@H](Nc1ccc(C(=O)N2CCC(C)(C#N)C2)cn1)c1ccccc1` (some centres unmarked) [Example 3.2] was 1940 pM.
